Where “and” joins values, the source holds several entries; their conditions need not be identical. Equal values may be shown once.
Test system: N. gonorrhoeae
Assay: N. gonorrhoeae murine vaginal infection model, efficacy
Type: in vivo, mouse
Conditions: BID
Method: The N. gonorrhoeae female mouse vaginal model[45] was performed in accordance with the Guide for Care and Use of Laboratory Animals[75]. Animal rooms were maintained at a temperature range of 20–24 °C and humidity between 30% and 70%, with 12 h light/dark cycles. Ovariectomized BALB/c female mice (5–6 weeks, BioLASCO Taiwan Co., Ltd.) were treated with estradiol (0.23 mg/mouse) two days before infection and on the day of infection. Ovariectomized mice were used to avoid staging mice before treating them with estradiol. Beginning two days prior to infection and maintained until the end of the study, animals were treated twice daily with streptomycin (1.2 mg/mouse) and vancomycin (0.6 mg/mouse) each via intraperitoneal (IP) injection and received trimethoprim sulfate in the drinking water (0.4 mg/mL) to control vaginal microflora. Animals were anesthetised with pentobarbital (80 mg/kg), the vagina was rinsed with 50 mM HEPES (pH 7.4), and then inoculated with N. gonorrhoeae in pre-warmed PBS (0.02 mL/mouse containing ~1 × 10^5 CFU).
Control groups received either a single IP injection of ceftriaxone or 5% dextrose (vehicle) twice daily. Animals were sacrificed via CO2 asphyxiation at either 2 h (baseline), 26 and/or 50 h post-infection. Vaginal lavage was performed twice with 200 µL GC broth containing 0.05% saponin to recover bacteria. Bacterial burden in the lavage fluids was determined by performing 10-fold serial dilutions and plating on chocolate agar plates. Four strains were assessed using the model; ATCC 700825 is naturally streptomycin-resistant, whereas AR Bank0179-15, AR Bank0181-17 and WHO X-07 are derivatives of AR Bank0179, AR Bank0181 and WHO X, respectively, that were engineered for streptomycin resistance for use in the model.

[1] = Data 4, N. gonorrhoeae WHO X-07, ovariectomized BALB/c, 20 mg/kg PO, 24h, individual animals, 20 mg/kg
[2] = Data 4, N. gonorrhoeae WHO X-07, ovariectomized BALB/c, 20 mg/kg PO, 48h, individual animals, 20 mg/kg
[3] = Data 4, N. gonorrhoeae WHO X-07, ovariectomized BALB/c, 30 mg/kg PO, 24h, individual animals, 30 mg/kg
[4] = Data 4, N. gonorrhoeae WHO X-07, ovariectomized BALB/c, 30 mg/kg PO, 48h, individual animals, 30 mg/kg
[5] = Data 4, N. gonorrhoeae WHO X-07, ovariectomized BALB/c, 40 mg/kg PO, 24h, individual animals, 40 mg/kg
[6] = Data 4, N. gonorrhoeae WHO X-07, ovariectomized BALB/c, 40 mg/kg PO, 48h, individual animals, 40 mg/kg
[7] = Data 4, N. gonorrhoeae WHO X-07, ovariectomized BALB/c, 80 mg/kg PO, 24h, individual animals, 80 mg/kg
[8] = Data 4, N. gonorrhoeae WHO X-07, ovariectomized BALB/c, 80 mg/kg PO, 48h, individual animals, 80 mg/kg
[9] = Data 4, N. gonorrhoeae WHO X-07, ovariectomized BALB/c, 160 mg/kg PO, 24h, individual animals, 160 mg/kg
[10] = Data 4, N. gonorrhoeae WHO X-07, ovariectomized BALB/c, 160 mg/kg PO, 48h, individual animals
[11] = N. gonorrhoeae AR Bank0179-15, vaginal lavage, individual mice, Debio 1453P 10 mg/kg PO, 24h
[12] = N. gonorrhoeae AR Bank0179-15, vaginal lavage, individual mice, Debio 1453P 10 mg/kg PO, 48h
[13] = N. gonorrhoeae AR Bank0179-15, vaginal lavage, individual mice, Debio 1453P 20 mg/kg PO, 24h
[14] = N. gonorrhoeae AR Bank0179-15, vaginal lavage, individual mice, Debio 1453P 20 mg/kg PO, 48h
[15] = N. gonorrhoeae AR Bank0179-15, vaginal lavage, individual mice, Debio 1453P 30 mg/kg PO, 24h
[16] = N. gonorrhoeae AR Bank0179-15, vaginal lavage, individual mice, Debio 1453P 30 mg/kg PO, 48h
[17] = N. gonorrhoeae AR Bank0179-15, vaginal lavage, individual mice, Debio 1453P 40 mg/kg PO, 24h
[18] = N. gonorrhoeae AR Bank0179-15, vaginal lavage, individual mice, Debio 1453P 40 mg/kg PO, 48h
[19] = N. gonorrhoeae AR Bank0179-15, vaginal lavage, individual mice, Debio 1453P 80 mg/kg PO, 24h
[20] = N. gonorrhoeae AR Bank0179-15, vaginal lavage, individual mice, Debio 1453P 80 mg/kg PO, 48h
[21] = N. gonorrhoeae AR Bank0181-17, vaginal lavage, individual mice, Debio 1453P 20 mg/kg PO, 24h
[22] = N. gonorrhoeae AR Bank0181-17, vaginal lavage, individual mice, Debio 1453P 30 mg/kg PO, 24h
[23] = N. gonorrhoeae AR Bank0181-17, vaginal lavage, individual mice, Debio 1453P 40 mg/kg PO, 24h
[24] = N. gonorrhoeae AR Bank0181-17, vaginal lavage, individual mice, Debio 1453P 80 mg/kg PO, 24h
[25] = N. gonorrhoeae ATCC 700825, vaginal lavage, individual mice, Debio 1453P 10 mg/kg PO, 24h
[26] = N. gonorrhoeae ATCC 700825, vaginal lavage, individual mice, Debio 1453P 20 mg/kg PO, 24h

## Cc1c(CN(C)C(=O)/C=C/c2cnc3c(c2)N[C@H](C)[C@H](OP(=O)([O-])[O-])C(=O)N3)oc2ccccc12.[Na+].[Na+] [Debio 1453 P]
[1]
  CFU/mL lavage fluid: 780000 CFU/mL lavage fluid and 510000 CFU/mL lavage fluid and 2110000 CFU/mL lavage fluid and 820000 CFU/mL lavage fluid and 1010000 CFU/mL lavage fluid
  Log10(CFU/mL lavage fluid): 5.89 Log10(CFU/mL lavage fluid) and 5.71 Log10(CFU/mL lavage fluid) and 6.32 Log10(CFU/mL lavage fluid) and 5.91 Log10(CFU/mL lavage fluid) and 6.00 Log10(CFU/mL lavage fluid)
[2]
  CFU/mL lavage fluid: 2660000 CFU/mL lavage fluid and 620000 CFU/mL lavage fluid and 3200000 CFU/mL lavage fluid and 920000 CFU/mL lavage fluid and 870000 CFU/mL lavage fluid
  Log10(CFU/mL lavage fluid): 6.42 Log10(CFU/mL lavage fluid) and 5.79 Log10(CFU/mL lavage fluid) and 6.51 Log10(CFU/mL lavage fluid) and 5.96 Log10(CFU/mL lavage fluid) and 5.94 Log10(CFU/mL lavage fluid)
[3]
  CFU/mL lavage fluid: 740000 CFU/mL lavage fluid and 760000 CFU/mL lavage fluid and 840000 CFU/mL lavage fluid and 440000 CFU/mL lavage fluid and 700000 CFU/mL lavage fluid
  Log10(CFU/mL lavage fluid): 5.87 Log10(CFU/mL lavage fluid) and 5.88 Log10(CFU/mL lavage fluid) and 5.92 Log10(CFU/mL lavage fluid) and 5.64 Log10(CFU/mL lavage fluid) and 5.85 Log10(CFU/mL lavage fluid)
[4]
  CFU/mL lavage fluid: 790000 CFU/mL lavage fluid and 1090000 CFU/mL lavage fluid and 46000 CFU/mL lavage fluid and 550000 CFU/mL lavage fluid and 1250000 CFU/mL lavage fluid
  Log10(CFU/mL lavage fluid): 5.90 Log10(CFU/mL lavage fluid) and 6.04 Log10(CFU/mL lavage fluid) and 4.66 Log10(CFU/mL lavage fluid) and 5.74 Log10(CFU/mL lavage fluid) and 6.10 Log10(CFU/mL lavage fluid)
[5]
  CFU/mL lavage fluid: 2240000 CFU/mL lavage fluid and 380000 CFU/mL lavage fluid and 92000 CFU/mL lavage fluid and 77000 CFU/mL lavage fluid and 610000 CFU/mL lavage fluid
  Log10(CFU/mL lavage fluid): 6.35 Log10(CFU/mL lavage fluid) and 5.58 Log10(CFU/mL lavage fluid) and 4.96 Log10(CFU/mL lavage fluid) and 4.89 Log10(CFU/mL lavage fluid) and 5.79 Log10(CFU/mL lavage fluid)
[6]
  CFU/mL lavage fluid: 123000 CFU/mL lavage fluid and 55000 CFU/mL lavage fluid and 380000 CFU/mL lavage fluid and 85000 CFU/mL lavage fluid and 1000000 CFU/mL lavage fluid
  Log10(CFU/mL lavage fluid): 5.09 Log10(CFU/mL lavage fluid) and 4.74 Log10(CFU/mL lavage fluid) and 5.58 Log10(CFU/mL lavage fluid) and 4.93 Log10(CFU/mL lavage fluid) and 6.00 Log10(CFU/mL lavage fluid)
[7]
  CFU/mL lavage fluid: 5 CFU/mL lavage fluid and 295 CFU/mL lavage fluid and 380 CFU/mL lavage fluid and 10 CFU/mL lavage fluid
  Log10(CFU/mL lavage fluid): 0.70 Log10(CFU/mL lavage fluid) and 2.47 Log10(CFU/mL lavage fluid) and 2.58 Log10(CFU/mL lavage fluid) and 1.00 Log10(CFU/mL lavage fluid)
[8]
  CFU/mL lavage fluid: 55 CFU/mL lavage fluid and <5 CFU/mL lavage fluid and 5 CFU/mL lavage fluid
  Log10(CFU/mL lavage fluid): 1.74 Log10(CFU/mL lavage fluid) and <0.70 Log10(CFU/mL lavage fluid) and 0.70 Log10(CFU/mL lavage fluid)
[9]
  CFU/mL lavage fluid: <5 CFU/mL lavage fluid and 30 CFU/mL lavage fluid and 5 CFU/mL lavage fluid
  Log10(CFU/mL lavage fluid): <0.70 Log10(CFU/mL lavage fluid) and 1.48 Log10(CFU/mL lavage fluid) and 0.70 Log10(CFU/mL lavage fluid)
[10]
  CFU/mL lavage fluid: <5 CFU/mL lavage fluid
  Log10(CFU/mL lavage fluid): <0.70 Log10(CFU/mL lavage fluid)
[11]
  CFU/mL lavage fluid: 390000 CFU/mL and 85000 CFU/mL and 46000 CFU/mL and 59000 CFU/mL and 77000 CFU/mL
  Log10(CFU/mL lavage fluid): 5.59 Log10(CFU/mL lavage fluid) and 4.93 Log10(CFU/mL lavage fluid) and 4.66 Log10(CFU/mL lavage fluid) and 4.77 Log10(CFU/mL lavage fluid) and 4.89 Log10(CFU/mL lavage fluid)
[12]
  CFU/mL lavage fluid: 64000 CFU/mL and 520000 CFU/mL and 61000 CFU/mL and 80000 CFU/mL and 103000 CFU/mL
  Log10(CFU/mL lavage fluid): 4.81 Log10(CFU/mL lavage fluid) and 5.72 Log10(CFU/mL lavage fluid) and 4.79 Log10(CFU/mL lavage fluid) and 4.9 Log10(CFU/mL lavage fluid) and 5.01 Log10(CFU/mL lavage fluid)
[13]
  CFU/mL lavage fluid: 47000 CFU/mL and 64000 CFU/mL and 4900 CFU/mL and 1450 CFU/mL and 20400 CFU/mL
  Log10(CFU/mL lavage fluid): 4.67 Log10(CFU/mL lavage fluid) and 4.81 Log10(CFU/mL lavage fluid) and 3.69 Log10(CFU/mL lavage fluid) and 3.16 Log10(CFU/mL lavage fluid) and 4.31 Log10(CFU/mL lavage fluid)
[14]
  CFU/mL lavage fluid: <5 CFU/mL and 21100 CFU/mL and 105 CFU/mL and 6100 CFU/mL
  Log10(CFU/mL lavage fluid): <0.70 Log10(CFU/mL lavage fluid) and 4.32 Log10(CFU/mL lavage fluid) and 2.02 Log10(CFU/mL lavage fluid) and 3.79 Log10(CFU/mL lavage fluid)
[15]
  CFU/mL lavage fluid: <5 CFU/mL and 545 CFU/mL and 85 CFU/mL and 5500 CFU/mL and 125 CFU/mL
  Log10(CFU/mL lavage fluid): <0.70 Log10(CFU/mL lavage fluid) and 2.74 Log10(CFU/mL lavage fluid) and 1.93 Log10(CFU/mL lavage fluid) and 3.74 Log10(CFU/mL lavage fluid) and 2.1 Log10(CFU/mL lavage fluid)
[16]
  CFU/mL lavage fluid: <5 CFU/mL and 205 CFU/mL
  Log10(CFU/mL lavage fluid): <0.70 Log10(CFU/mL lavage fluid) and 2.31 Log10(CFU/mL lavage fluid)
[17]
  CFU/mL lavage fluid: 7600 CFU/mL and <5 CFU/mL and 200 CFU/mL and 115 CFU/mL
  Log10(CFU/mL lavage fluid): 3.88 Log10(CFU/mL lavage fluid) and <0.70 Log10(CFU/mL lavage fluid) and 2.3 Log10(CFU/mL lavage fluid) and 2.06 Log10(CFU/mL lavage fluid)
[18]
  CFU/mL lavage fluid: 65 CFU/mL and <5 CFU/mL
  Log10(CFU/mL lavage fluid): 1.81 Log10(CFU/mL lavage fluid) and <0.70 Log10(CFU/mL lavage fluid)
[19]
  CFU/mL lavage fluid: <5 CFU/mL
  Log10(CFU/mL lavage fluid): <0.70 Log10(CFU/mL lavage fluid)
[20]
  CFU/mL lavage fluid: <5 CFU/mL
  Log10(CFU/mL lavage fluid): <0.70 Log10(CFU/mL lavage fluid)
[21]
  CFU/mL lavage fluid: 1880000 CFU/mL and 790000 CFU/mL and 670000 CFU/mL and 810000 CFU/mL and 720000 CFU/mL
  Log10(CFU/mL lavage fluid): 6.27 Log10(CFU/mL lavage fluid) and 5.9 Log10(CFU/mL lavage fluid) and 5.83 Log10(CFU/mL lavage fluid) and 5.91 Log10(CFU/mL lavage fluid) and 5.86 Log10(CFU/mL lavage fluid)
[22]
  CFU/mL lavage fluid: 380000 CFU/mL and 1120000 CFU/mL and 11300 CFU/mL and 201000 CFU/mL and 620000 CFU/mL
  Log10(CFU/mL lavage fluid): 5.58 Log10(CFU/mL lavage fluid) and 6.05 Log10(CFU/mL lavage fluid) and 4.05 Log10(CFU/mL lavage fluid) and 5.3 Log10(CFU/mL lavage fluid) and 5.79 Log10(CFU/mL lavage fluid)
[23]
  CFU/mL lavage fluid: 11500 CFU/mL and 123000 CFU/mL and 200000 CFU/mL and 830000 CFU/mL and 730000 CFU/mL
  Log10(CFU/mL lavage fluid): 4.06 Log10(CFU/mL lavage fluid) and 5.09 Log10(CFU/mL lavage fluid) and 5.3 Log10(CFU/mL lavage fluid) and 5.92 Log10(CFU/mL lavage fluid) and 5.86 Log10(CFU/mL lavage fluid)
[24]
  CFU/mL lavage fluid: 275 CFU/mL
  Log10(CFU/mL lavage fluid): 2.44 Log10(CFU/mL lavage fluid)
[25]
  CFU/mL lavage fluid: 50000 CFU/mL and 21700 CFU/mL and 23000 CFU/mL and 15500 CFU/mL and 490000 CFU/mL
  Log10(CFU/mL lavage fluid): 4.7 Log10(CFU/mL lavage fluid) and 4.34 Log10(CFU/mL lavage fluid) and 4.36 Log10(CFU/mL lavage fluid) and 4.19 Log10(CFU/mL lavage fluid) and 5.69 Log10(CFU/mL lavage fluid)
[26]
  CFU/mL lavage fluid: 7500 CFU/mL and 5100 CFU/mL and 204000 CFU/mL and 15100 CFU/mL
  Log10(CFU/mL lavage fluid): 3.88 Log10(CFU/mL lavage fluid) and 3.71 Log10(CFU/mL lavage fluid) and 5.31 Log10(CFU/mL lavage fluid) and 4.18 Log10(CFU/mL lavage fluid)
